This passage reports IC50 results from US10179771B2 (GALAPAGOS NV, priority 2014, dated 2019).

Bounds are passed on as bounds.

A word on the IC50: it is the concentration that inhibits the measured activity by half.

This test concerns the target T1, Recombinant human JAK1 catalytic domain (Homo sapiens, UniProt P23458).
T1 construct: Recombinant human JAK1 (catalytic domain, amino acids 866-1154; catalog number PV4774); purchased Invitrogen PV4774
Kind of test: JAK1 inhibition assay (polyGT substrate / Ulight-JAK1 peptide assay). Format: biochemical. Particulars: Illustrative Compounds of the invention (Table V). The method, then:
Recombinant human JAK1 catalytic domain (amino acids 850-1154; catalog number 08-144) was purchased from Carna Biosciences. 10 ng of JAK1 is incubated with 12.5 μg polyGT substrate (Sigma catalog number P0275) in kinase reaction buffer (15 mM Tris-HCl pH 7.5, 1 mM DTT, 0.01% Tween-20, 10 mM MgCl2, 2 μM non-radioactive ATP, 0.25 ρCi ^33P-gamma-ATP (GE Healthcare, catalog number AH9968) final concentrations) with or without 5 μL containing test compound or vehicle (DMSO, 1% final concentration), in a total volume of 25 μL, in a polypropylene 96-well plate (Greiner, V-bottom). After 45 min at 30° C., reactions are stopped by adding of 25 μL/well of 150 mM phosphoric acid. All of the terminated kinase reaction is transferred to prewashed (75 mM phosphoric acid) 96 well filter plates (Perkin Elmer catalog number 6005177) using a cell harvester (Perkin Elmer). Plates are washed 6 times with 300 μL per well of a 75 mM phosphoric acid solution and the bottom of the plates is sealed. 40 μL/well of Microscint-20 is added, the top of the plates is sealed and readout is performed using the Topcount (Perkin Elmer). Kinase activity is calculated by subtracting counts per min (cpm) obtained in the presence of a positive control inhibitor (10 μM staurosporine) from cpm obtained in the presence of vehicle. The ability of a test compound to inhibit this activity is determined as:
[formula] • RFU test compound=RFU determined for sample with test compound present • RFU control=RFU determined for sample with positive control inhibitor • RFU vehicle=RFU determined in the presence of vehicle
Dose dilution series are prepared for the compounds enabling the testing of dose-response effects in the JAK1 assay and the calculation of the IC50 for each compound. Each compound is routinely tested at concentration of 20 μM followed by a 1/3 serial dilution, 8 points (20 μM-6.67 μM-2.22 μM-740 nM-247 nM-82 nM-27 nM-9 nM) in a final concentration of 1% DMSO. When potency of compound series increased, more dilutions are prepared and/or the top concentration was lowered (e.g. 5 μM, 1 μM).
Recombinant human JAK1 (catalytic domain, amino acids 866-1154; catalog number PV4774) was purchased from Invitrogen. 1 ng of JAK1 was incubated with 20 nM Ulight-JAK1 (tyr1023) peptide (Perkin Elmer catalog number TRF0121) in kinase reaction buffer (25 mM MOPS pH6.8, 0.01% Brij-35, 5 mM MgCl2, 2 mM DTT, 7 μM ATP) with or without 4 μL containing test compound or vehicle (DMSO, 1% final concentration), in a total volume of 20 μL, in a white 384 Opti plate (Perkin Elmer, catalog number 6007290). After 60 min at room temperature, reactions were stopped by adding 20 μL/well of detection mixture (1× detection buffer (Perkin Elmer, catalog number CR97-100C), 0.5 nM Europium-anti-phosphotyrosine (PT66) (Perkin Elmer, catalog number AD0068), 10 mM EDTA). Readout is performed using the Envision with excitation at 320 nm and measuring emission at 615 nm (Perkin Elmer). Kinase activity was calculated by subtracting relative fluorescence units (RFU) obtained in the presence of a positive control inhibitor (10 μM staurosporine) from RFU obtained in the presence of vehicle. The ability of a test compound to inhibit this activity was determined as: Percentage inhibition=((RFU determined for sample with test compound present−RFU determined for sample with positive control inhibitor) divided by (RFU determined in the presence of vehicle−RFU determined for sample with positive control inhibitor))*100.
Dose dilution series were prepared for the compounds enabling the testing of dose-response effects in the JAK1 assay and the calculation of the IC50 for the compound. Each compound is routinely tested at concentration of 20 μM followed by a 1/5 serial dilution, 10 points in a final concentration of 1% DMSO. When potency of compound series increases, more dilutions are prepared and/or the top concentration are lowered (e.g. 5 μM, 1 μM). […]

T1 sequence (P23458 866-1154): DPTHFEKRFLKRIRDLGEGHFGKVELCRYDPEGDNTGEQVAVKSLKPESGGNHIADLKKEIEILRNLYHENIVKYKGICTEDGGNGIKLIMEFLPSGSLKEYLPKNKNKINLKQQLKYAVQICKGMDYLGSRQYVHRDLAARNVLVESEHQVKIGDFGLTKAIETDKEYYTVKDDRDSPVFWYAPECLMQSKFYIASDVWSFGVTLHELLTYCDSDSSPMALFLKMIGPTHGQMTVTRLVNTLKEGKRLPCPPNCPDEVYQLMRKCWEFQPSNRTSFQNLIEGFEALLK

As for `CCc1cc(C#N)ncc1Oc1cc(NC(=O)[C@H]2C[C@H]2F)c2ncn(C)c2c1` [Cpd 6, (1R,2R)-N-[6-[(6-cyano-4-ethyl-3-pyridyl)oxy]-1-methyl-benzimidazol-4-yl]-2-fluoro-cyclopropanecarboxamide], the IC50 is 0.0001 to 0.05 µM. With `CCc1cc(S(C)(=O)=O)ncc1Oc1cc(NC(=O)C2CC2)c2ncn(C)c2c1` [Cpd 29, N-[6-[(4-ethyl-6-methylsulfonyl-3-pyridyl)oxy]-1-methyl-benzimidazol-4-yl]cyclopropanecarboxamide], the IC50 fell in the range of 0.0001 to 0.05 µM. In the case of `CCS(=O)(=O)c1ccc(N(C)c2cc(NC(=O)[C@H]3C[C@H]3F)c3ncn(C)c3c2)c(C)c1` [Cpd 27, (1R,2R)-N-[6-(4-ethylsulfonyl-N,2-dimethyl-anilino)-1-methyl-benzimidazol-4-yl]-2-fluoro-cyclopropanecarboxamide] it was 0.0001 to 0.05 µM.

Take `Cc1cc(S(C)(=O)=O)cc(F)c1N(C)c1cc(NC(=O)C2CC2)c2ncn(C)c2c1` [Cpd 19, N-[6-(2-fluoro-N,6-dimethyl-4-methylsulfonyl-anilino)-1-methyl-benzimidazol-4-yl]cyclopropanecarboxamide]: the IC50 was in the range of 0.0001 to 0.05 µM. As for `Cc1cc(C#N)ncc1Oc1cc(N)c2ncn(C)c2c1` [Cpd 28, 5-(7-amino-3-methyl-benzimidazol-5-yl)oxy-4-methyl-pyridine-2-carbonitrile], the figure is 0.05 to 0.1 µM; as for `Cc1cc(C#N)ncc1Oc1cc(NC(=O)NC(C)C)c2ncn(C)c2c1` [Cpd 38, 1-[6-[(6-cyano-4-methyl-3-pyridyl)oxy]-1-methyl-benzimidazol-4-yl]-3-isopropyl-urea], 0.0001 to 0.05 µM; as for `CCc1cc(C(N)=O)ncc1N(C)c1cc(NC(=O)C2CC2)c2ncn(C)c2c1` [Cpd 24, 5-((4-(cyclopropanecarboxamido)-1-methyl-1H-benzo[d]imidazol-6-yl)(methyl)amino)-4-ethylpicolinamide], 0.0001 to 0.05 µM.

Regarding `Cc1cnc(C#N)c(F)c1N(C)c1cc(NC(=O)[C@H]2C[C@H]2F)c2ncn(C)c2c1` [Cpd 22, (1R,2R)-N-[6-[(2-cyano-3-fluoro-5-methyl-4-pyridyl)-methyl-amino]-1-methyl-benzimidazol-4-yl]-2-fluoro-cyclopropanecarboxamide], the IC50 fell in the range of 0.0001 to 0.05 µM. In the case of `Cc1cc(C#N)ncc1Oc1cc(NC(=O)C2CC2)c2ncn(C)c2c1` [Cpd 23, N-[6-[(6-cyano-4-methyl-3-pyridyl)oxy]-1-methyl-benzimidazol-4-yl]cyclopropanecarboxamide] it was 0.0001 to 0.05 µM; in that of `CCc1cc(S(C)(=O)=O)ncc1N(C)c1cc(NC(=O)C2CC2)c2ncn(C)c2c1` [Cpd 18, N-[6-[(4-ethyl-6-methylsulfonyl-3-pyridyl)-methyl-amino]-1-methyl-benzimidazol-4-yl]cyclopropanecarboxamide], 0.0001 to 0.05 µM. As for `Cc1cc(C(N)=O)ncc1Oc1cc(NC(=O)[C@H]2C[C@H]2F)c2ncn(C)c2c1` [Cpd 32, 5-[7-[[(1R,2R)-2-fluorocyclopropanecarbonyl]amino]-3-methyl-benzimidazol-5-yl]oxy-4-methyl-pyridine-2-carboxamide], the figure is 0.05 to 0.1 µM. In the case of `CCc1cc(C#N)ncc1N(C)c1cc(NC(=O)OC)c2ncn(C)c2c1` [Cpd 4, methyl 6-((6-cyano-4-ethylpyridin-3-yl)(methyl)amino)-1-methyl-1H-benzo[d]imidazol-4-ylcarbamate] it was 0.0001 to 0.05 µM; in that of `CCc1cc(C#N)ccc1Oc1cc(NC(=O)[C@H]2C[C@H]2F)c2ncn(C)c2c1` [Cpd 10, (1R,2R)-N-[6-(4-cyano-2-ethyl-phenoxy)-1-methyl-benzimidazol-4-yl]-2-fluoro-cyclopropanecarboxamide], 0.0001 to 0.05 µM; in that of `CN(c1cc(NC(=O)[C@H]2C[C@H]2F)c2ncn(C)c2c1)c1ccc(C#N)nc1F` [Cpd 14, (1R,2R)-N-[6-[(6-cyano-2-fluoro-3-pyridyl)-methyl-amino]-1-methyl-benzimidazol-4-yl]-2-fluoro-cyclopropanecarboxamide], 0.0001 to 0.05 µM. Consider `CCc1cc(C#N)cc(F)c1Nc1cc(NC(=O)C2CC2)c2ncn(C)c2c1` [Cpd 2, N-(6-(4-cyano-2-ethyl-6-fluorophenylamino)-1-methyl-1H-benzo[d]imidazol-4-yl)cyclopropanecarboxamide], for which the IC50 lay within 0.0001 to 0.05 µM. In the case of `Cc1cc(S(C)(=O)=O)cc(F)c1N(C)c1cc(NC(=O)[C@H]2C[C@H]2F)c2ncn(C)c2c1` [Cpd 16, (1R,2R)-2-fluoro-N-[6-(2-fluoro-N,6-dimethyl-4-methylsulfonyl-anilino)-1-methyl-benzimidazol-4-yl]cyclopropanecarboxamide] it was 0.0001 to 0.05 µM; in that of `CN(c1cc(NC(=O)[C@H]2C[C@H]2F)c2ncn(C)c2c1)c1c(F)cc(C#N)cc1Cl` [Cpd 11, (1R,2R)-N-[6-(2-chloro-4-cyano-6-fluoro-N-methyl-anilino)-1-methyl-benzimidazol-4-yl]-2-fluoro-cyclopropanecarboxamide], 0.0001 to 0.05 µM. As for `CN(c1cc(NC(=O)[C@H]2C[C@H]2F)c2ncn(C)c2c1)c1ccc(F)nc1F` [Cpd 13, (1R,2R)-N-[6-[(2,6-difluoro-3-pyridyl)-methyl-amino]-1-methyl-benzimidazol-4-yl]-2-fluoro-cyclopropanecarboxamide], the IC50 was in the range of 0.05 to 0.1 µM. In the case of `CCc1cc(C#N)ncc1N(C)c1cc(NC(=O)[C@H]2C[C@H]2F)c2ncn(C)c2c1` [Cpd 8, (1R,2R)-N-(6-((6-cyano-4-ethylpyridin-3-yl)(methyl)amino)-1-methyl-1H-benzo[d]imidazol-4-yl)-2-fluorocyclopropanecarboxamide] it was 0.0001 to 0.05 µM; in that of `Cc1cc(C#N)ncc1Oc1cc(N(C)C)c2ncn(C)c2c1` [Cpd 35, 5-[7-(dimethylamino)-3-methyl-benzimidazol-5-yl]oxy-4-methyl-pyridine-2-carbonitrile], more than 0.5 µM. In the case of `CCc1cc(C#N)ncc1N(C)c1cc(NC(=O)C2CC2)c2ncn(C)c2c1` [Cpd 1, N-(6-((6-cyano-4-ethylpyridin-3-yl)(methyl)amino)-1-methyl-1H-benzo[d]imidazol-4-yl)cyclopropanecarboxamide] it was 0.0001 to 0.05 µM; in that of `Cc1cc(F)ncc1N(C)c1cc(NC(=O)[C@H]2C[C@H]2F)c2ncn(C)c2c1` [Cpd 12, (1R,2R)-2-fluoro-N-[6-[(6-fluoro-4-methyl-3-pyridyl)-methyl-amino]-1-methyl-benzimidazol-4-yl]cyclopropanecarboxamide], 0.0001 to 0.05 µM; in that of `Cc1cc(C#N)ncc1Oc1cc(NC(=O)N2CCOCC2)c2ncn(C)c2c1` [Cpd 37, N-[6-[(6-cyano-4-methyl-3-pyridyl)oxy]-1-methyl-benzimidazol-4-yl]morpholine-4-carboxamide], more than 0.5 µM. As for `CCc1cc(C#N)cc(F)c1N(C)c1cc(NC(=O)OC)c2ncn(C)c2c1` [Cpd 5, methyl 6-((4-cyano-2-ethyl-6-fluorophenyl)(methyl)amino)-1-methyl-1H-benzo[d]imidazol-4-ylcarbamate], the figure is 0.0001 to 0.05 µM. For the molecule `CN(c1cc(NC(=O)[C@H]2C[C@H]2F)c2ncn(C)c2c1)c1ccc(S(C)(=O)=O)cc1F` [Cpd 17, (1R,2R)-2-fluoro-N-[6-(2-fluoro-N-methyl-4-methylsulfonyl-anilino)-1-methyl-benzimidazol-4-yl]cyclopropanecarboxamide], the IC50 lay in the range of 0.1 to 0.5 µM.
